Source: patent US5614562A, “Method of treating drug resistant tumor cells using organoselenones” (The University of Sourthern California, priority 1992, dated 1997)
Converted amounts (≈) assume the structure as drawn. Like-named read-outs stand apart in the source and are kept apart here.

Tests used:
L1210/0 [1] = experiment: Cytotoxicity, 48-hr exposure of L1210/0 leukemia cells; format: cell-based, murine; conditions: read-out: IC50 L1210/0
Source text: (§1) Murine L1210 leukemia cells sensitive (L1210/0) and resistant (L1210/L-PAM)to L-phenylalanine mustard were obtained that are adaptable to either in vitro or in vivo passage.
(§2) Broad resistance of the L1210/L-PAM cell line is shown by the approximately 4-fold and 9-fold increases in IC50, compared to L1210/0, for L-PAM and mechlorethamine, respectively (Comparative Examples 3 and 4). […].

HCT116 = experiment: In vitro cytotoxicity, HCT116 human colon carcinoma; format: cell-based; conditions: data provided by Bristol-Myers Laboratories; for IC50: Homo sapiens, HCT-116
Source text: ^b Cell lines: HCT116 human colon (sensitive to VP16 and VM26)

HCT/VM46 = experiment: In vitro cytotoxicity, VM26 resistant HCT/VM46 human colon carcinoma; format: cell-based; conditions: for IC50 HCT/VM46 / IC50: VM26 resistant, data provided by Bristol-Myers Laboratories; for ratio of IC50 values HCT/VM46 vs HCT116: IC50 divided by IC50 for HCT116; for IC50: Homo sapiens; for fold increase in IC50, HCT/VM46: vs HCT116
Source text: | HCT/VM46 human colon, VM26 resistant

L1210/L-PAM [2] = experiment: Cytotoxicity, 48-hr exposure of L-PAM resistant L1210/L-PAM leukemia cells; format: cell-based, murine; conditions: for IC50: read-out: IC50 L1210/L-PAM; for fold increase in IC50, L1210/L-PAM compared to L1210/0: 48-h exposure
Source text: as §1, §2

HCT/VP35 = experiment: In vitro cytotoxicity, VP16 resistant HCT/VP35 human colon carcinoma; format: cell-based; conditions: for IC50 HCT/VP35 / IC50: VP16 resistant, data provided by Bristol-Myers Laboratories; for ratio of IC50 values HCT/VP35 vs HCT116: IC50 divided by IC50 for HCT116; for IC50: Homo sapiens, HCT/VP35; for fold increase in IC50, HCT/VP35: vs HCT116
Source text: | HCT/VP35 human colon, VP16 resistant

L1210/0 [3] = conditions: cited from earlier work
[4] = compared with chlorambucil; cited from earlier work
L1210/L-PAM [5] = conditions: L1210/L-PAM line; cited from earlier work
[6] = tested on: HT29 human colon carcinoma cells; experiment: Growth inhibition cytotoxicity against HT29 human colon carcinoma cells (MER(+)); format: cell-based; conditions: HT-29
Source text: (Example 15) These cells are very high in the alkyltransferase enzyme for repair of DNA guanine O6-alkyl products, and therefore are considered strongly MER(+) in phenotype. Levels of this enzyme in HT29 cells have averaged about 0.5 pmol/mg protein in recent studies (K. Chan, et al., unpublished). […] Thus, the lack of cross-resistance to ethyleneimines by the present invention of 2-chloroethyl aryl selenones is not associated with resistence mediated by the alkyltransferase repair enzyme.

[7] = Mus musculus, L1210/0, 48-hr exposure
[8] = Mus musculus, L1210/LPAM, 48-hr exposure

2,6Bis(3-methanesulfonylpropylseleno)lutidine [Lutidine Derivative]
IC50 (L1210/0 [1]; 48-hr exposure): 12 µM | IC50 HCT116 (HCT116): > 15.6 µg/mL | IC50 HCT/VM46 (HCT/VM46): > 15.6 µg/mL | Ratio of IC50s (L1210/L-PAM vs L1210/0) (L1210/L-PAM [2]; 48-hr exposure): 2.3 | IC50 (L1210/L-PAM [2]; 48-hr exposure): 28 µM | IC50 HCT/VP35 (HCT/VP35): > 15.6 µg/mL

3-methanesulfonylpropyl phenyl selenone
IC50 HCT116 (HCT116): 6.34 µg/mL | ratio of IC50 values HCT/VM46 vs HCT116 (HCT/VM46): 0.8 | IC50 HCT/VM46 (HCT/VM46): 4.93 µg/mL | ratio of IC50 values HCT/VP35 vs HCT116 (HCT/VP35): 0.8 | IC50 HCT/VP35 (HCT/VP35): 5.15 µg/mL

CS(=O)(=O)OCCC[Se]CCCOS(C)(=O)=O [(MsOCH2 CH2 CH2)2 Se]
IC50 (L1210/0 [1]; [7]): 2.3 µM | fold increase in IC50, L1210/L-PAM compared to L1210/0 (L1210/L-PAM [2]): 7 fold | Ratio of IC50s (L1210/L-PAM vs L1210/0) (L1210/L-PAM [2]; 48-hr exposure): 7.0 | IC50 (L1210/L-PAM [2]; [8]): 16 µM

O=NN(CCCl)C(=O)NCCCl [BCNU, carmustine]
sensitivity of parent L1210/0 line (L1210/0 [3]): sensitive

CS(=O)(=O)OCCCCOS(C)(=O)=O [Busulfan]
IC50 (L1210/0 [1]; [7]): 55 µM | Ratio of IC50s (L1210/L-PAM vs L1210/0) (L1210/L-PAM [2]; 48-hr exposure): 1.1 | IC50 (L1210/L-PAM [2]; [8]): 60 µM

CS(=O)(=O)CS(=O)(=O)OCCCl [Clomesone]
nucleophilic selectivity [4]: relatively high nucleophilic selectivity approaching that of chlorambucil

N[C@@H](Cc1ccc(N(CCCl)CCCl)cc1)C(=O)O [L-Phenylalanine Mustard (L-PAM), L-Phenylalanine Mustard]
IC50 (L1210/0 [1]; Mus musculus, L1210/0, 48 h): 1.6 µM | in vivo resistance (log cell kill differential) (L1210/L-PAM [5]): 4 log | sensitivity of parent L1210/0 line (L1210/0 [3]): sensitive | fold increase in IC50, L1210/L-PAM compared to L1210/0 (L1210/L-PAM [2]): approximately 4 fold | Ratio of IC50s (L1210/L-PAM vs L1210/0) (L1210/L-PAM [2]; 48-hr exposure): 4.4 | IC50 (L1210/L-PAM [2]; Mus musculus, L1210/LPAM, 48 h): 7 µM

CS(=O)(=O)OCCC[Se]c1ccccc1 [PhSeCH2 CH2 CH2 OMs]
IC50 (L1210/0 [1]; [7]): 52 µM | Ratio of IC50s (L1210/L-PAM vs L1210/0) (L1210/L-PAM [2]; 48-hr exposure): 1.9 | IC50 (L1210/L-PAM [2]; [8]): 100 µM

COc1cc([C@@H]2c3cc4c(cc3[C@@H](O[C@@H]3O[C@@H]5CO[C@@H](c6cccs6)O[C@H]5[C@H](O)[C@H]3O)[C@H]3COC(=O)[C@H]23)OCO4)cc(OC)c1O [VM-26 (Teniposide), Teniposide]
IC50 (HCT116): 0.035 µg/mL (≈ 0.0533 µM) | IC50 (HCT/VM46): 0.17 µg/mL (≈ 0.259 µM) | ratio of IC50 values HCT/VM46 vs HCT116 (HCT/VM46): 4.9 | fold increase in IC50, HCT/VM46 (HCT/VM46): 4.9 fold | IC50 (HCT/VP35): 0.53 µg/mL (≈ 0.807 µM) | ratio of IC50 values HCT/VP35 vs HCT116 (HCT/VP35): 15.1 | fold increase in IC50, HCT/VP35 (HCT/VP35): 15.1 fold

COc1cc([C@@H]2c3cc4c(cc3[C@@H](O[C@@H]3O[C@@H]5CO[C@@H](C)O[C@H]5[C@H](O)[C@H]3O)[C@H]3COC(=O)[C@H]23)OCO4)cc(OC)c1O [VP-16 (Etoposide), Etoposide]
IC50 (HCT116): 0.46 µg/mL (≈ 0.782 µM) | IC50 (HCT/VM46): 1.48 µg/mL (≈ 2.51 µM) | ratio of IC50 values HCT/VM46 vs HCT116 (HCT/VM46): 3.2 | fold increase in IC50, HCT/VM46 (HCT/VM46): 3.2 fold | IC50 (HCT/VP35): 4.62 µg/mL (≈ 7.85 µM) | ratio of IC50 values HCT/VP35 vs HCT116 (HCT/VP35): 10.0 | fold increase in IC50, HCT/VP35 (HCT/VP35): 10.0 fold

NC(=O)N(CCCl)N=O [chloroethylnitrosourea (CNU), chloroethylnitrosourea, reference compound]
IC50 [6]: 250 µM

O=P1(N(CCCl)CCCl)NCCCO1 (stereo not drawn) [cyclophosphamide]
in vivo resistance (log cell kill differential) (L1210/L-PAM [5]): > 2 log | sensitivity of parent L1210/0 line (L1210/0 [3]): sensitive

S=P(N1CC1)(N1CC1)N1CC1 [thioTEPA]
in vivo resistance (log cell kill differential) (L1210/L-PAM [5]): 4 log | sensitivity of parent L1210/0 line (L1210/0 [3]): sensitive

(CH3)2 NCSeCH2 CH2 Cl
IC50 (L1210/0 [1]; 48-hr exposure): 18 µM | Ratio of IC50s (L1210/L-PAM vs L1210/0) (L1210/L-PAM [2]; 48-hr exposure): 1.7 | IC50 (L1210/L-PAM [2]; 48-hr exposure): 30 µM
